The results in this text go back to paper PMC13230610, “Fast analysis and engineering of protein function by microbe-independent deep assembly and screening” (Molecular Systems Biology, 2026).

As usually defined, the Kd is the concentration at which binding is half-saturated.

Assay [1] deals with T1, ACh-NeuBI0.5 (engineered OpuBC fused with SmBiT/LgBiT and mScarlet-I).
T1 construct: mScarlet-I at N-terminus of OpuBC (30-106)-linker 1 (Phe)-SmBiT (∆C3)-LgBiT-OpuBC (107-305)
Description: bioluminescence dose-response of indicator expressed on HEK293A cells. The assay is classed as cell-based, Homo sapiens (HEK293A cells).

The subject of assay [2] is T2, ACh-NeuBI1b (ACh-NeuBI0.5 QAE; engineered OpuBC fused with SmBiT/LgBiT and mScarlet-I).
T2 construct: ACh-NeuBI0.5 QAE
Description: bioluminescence dose-response in HEK293A cells; also purified protein responded. The assay is classed as cell-based, Homo sapiens (HEK293A cells).

With `CC(=O)OCC[N+](C)(C)C` [acetylcholine], the Kd in assay [1] amounted to 898 µM; in assay [2], 188 µM.
Molecule `C[N+](C)(C)CCO` [choline] returned a Kd in assay [1] of 11000 µM.
